Values quoted from earlier work in US11173140B2, “Dosing regimens of PKC activators” (COGNITIVE RESEARCH ENTERPRISES, INC., priority 2015, dated 2021).
pKi: −log10 of the molar value. Where two headings read alike, the source gives them in different places.

Legend:
[1] = test system: NCI 60 cell line screen; conditions: NCI 60 cell lines; cited from earlier work
[2] = molecular target: PKC; conditions: competition with [3H] phorbol dibutyrate; read-out: Ki, binding to PKC; cited from earlier work
[3] = molecular target: PKC; conditions: cited from earlier work
[4] = test system: PKC; conditions: cited from earlier work; remark: listed apart in the source
[5] = A-ring bryologs, read-out: affinity for PKC

For `CC1=CC[C@H](C)C(C)(C)[C@@H]1/C=C/C(C)=C/CC[C@@]1(CO)[C@H](CCCO)/C(=C(/C)C=O)CC[C@]1(C)O` [Iripallidal], the “GI50 (concentration required to inhibit growth by 50%)” value [1] is listed as “micromolar to nanomolar range”.
For `CC1=C[C@]23C(=O)[C@@H](C=C(COC(=O)c4ccccc4)[C@@H](O)[C@]2(O)[C@H]1OC(=O)c1ccccc1)[C@H]1[C@@H](C[C@H]3C)C1(C)C` [Ingenol 3,20-dibenzoate], the pKi [2] is listed as 6.62.
For `CCCCCCCC(=O)OC1C(=CC(=O)OC)CC2CC(CO)OC(=O)CC(O)CCOC(C(C)(C)C)CC3CCOC(C=CC(C)(C)C1(O)O2)O3` (stereo not shown) [bryolog 3], the pKi [3, 5] is given as 8.19.
In the case of `CCC1CC1CC1CC1CC1CC1CC1CC1CC1CC1CC1CC1CCC(=O)OC` (stereo not shown) [DHA-CP6, cyclopropanated docosahexaenoic acid methyl ester], the effective concentration [4] is given as 10 nM.
For `CCCCCCCC(=O)O[C@H]1/C(=C/C(=O)OC)C[C@H]2C[C@H](CO)OC(=O)C[C@H](O)C[C@@H]3CCC[C@H](C[C@@H]4CCO[C@H](/C=C/C(C)(C)[C@]1(O)O2)O4)O3` [Analog 1], the “affinity for PKC (in words)” value [3] is listed as “highest affinity” and the pKi ([3]; read-out: PKC Affin) is listed as 9.60.
In the case of `CCCCCCCC(=O)OC1C(=CC(=O)OC)CC2CC(CO)OC(=O)CC(O)CCOC(c3ccccc3)CC3CCOC(C=CC(C)(C)C1(O)O2)O3` (stereo not shown) [bryolog 4], the pKi [3, 5] is listed as 8.64.
